Experimental findings from US10022461B2, “Pyrrolo[2,3-C]pyridines as imaging agents for neurofibrilary tangles” (MERCK SHARP & DOHME CORP., priority 2014, dated 2018) are described below.

Chain of tau (P10636 2-758 limits assumed): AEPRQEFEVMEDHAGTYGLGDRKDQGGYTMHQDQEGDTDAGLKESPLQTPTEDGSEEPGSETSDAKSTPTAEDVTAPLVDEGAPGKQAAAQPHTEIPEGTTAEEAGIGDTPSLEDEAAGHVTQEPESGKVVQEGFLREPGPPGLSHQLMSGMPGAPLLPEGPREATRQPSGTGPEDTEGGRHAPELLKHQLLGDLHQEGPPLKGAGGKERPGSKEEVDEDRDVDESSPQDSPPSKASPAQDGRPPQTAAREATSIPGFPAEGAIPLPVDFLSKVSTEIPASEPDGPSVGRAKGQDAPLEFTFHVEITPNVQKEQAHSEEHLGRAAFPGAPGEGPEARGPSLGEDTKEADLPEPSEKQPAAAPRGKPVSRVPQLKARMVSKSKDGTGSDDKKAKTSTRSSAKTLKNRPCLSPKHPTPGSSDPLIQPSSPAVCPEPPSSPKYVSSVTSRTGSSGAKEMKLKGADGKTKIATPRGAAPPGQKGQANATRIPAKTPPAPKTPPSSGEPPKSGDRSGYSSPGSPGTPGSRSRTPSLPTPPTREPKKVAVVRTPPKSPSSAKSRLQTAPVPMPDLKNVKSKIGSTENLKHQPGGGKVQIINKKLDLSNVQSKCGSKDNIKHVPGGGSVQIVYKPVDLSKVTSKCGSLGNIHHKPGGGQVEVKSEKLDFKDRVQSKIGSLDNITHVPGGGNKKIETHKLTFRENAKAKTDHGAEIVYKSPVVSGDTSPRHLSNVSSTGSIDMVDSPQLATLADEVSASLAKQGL

The first experiment has as its target tau (Homo sapiens, UniProt P10636). In words: displacement tau binding assay in AD brain homogenates with [^3H]-6. Conditions: Table 1, displacement of [^3H]-6 (0.25 nM). As to the method: The frozen human brain samples of Alzheimer's disease (AD) were purchased from Analytic Biological Services Inc. They were postmortem tissue from donors with clinical diagnosis of AD. As much of the white matter was dissected out of the frontal cortex in order to enrich the tissue preparations for gray matter. Brain homogenates of gray matter enriched frontal cortex were prepared by homogenizing the tissue in ice cold Phosphate Buffered Saline (PBS), pH 7.4 at 80 mg wet weight tissue per 1 mL for 45 seconds at 4° C. on setting 16 of Polytron. The homogenate was further diluted with ice cold PBS to 30 mg wet weight tissue per 1 mL and homogenized for an additional minute as described above. Homogenates were aliquoted in 5 ml/tube and store at −70° C. until use. […] Brain homogenates were diluted to 0.5 mg/mL from original 30 mg/mL volume in Assay Buffer, and 200 μl were added to the assay plate for a final concentration of 100 μg wet weight/assay tube. [^3H]-6 was prepared at […] final concentration in Assay Buffer plus 20% DMSO and 25 μl was added to the assay plate for final assay concentration of 0.25 nM. The assay plate was incubated at room temperature (25° C.) for 90 minutes. […] Filter plates were dried for 1 hour in a vacuum oven and 50 μl/well MicroScint-20 were added. Plates were counted 1 min per well by Packard Topcount. Total amount of radioligand used in the assay was determined by counting 25 μl of 10× ligand stock. […] Tau Ki data for representative compounds of the invention are found in Table 1.
Take `Fc1ccc2cnc(-n3ccc4ccncc43)cc2n1` [Compound 40, 2-fluoro-7-(1H-pyrrolo[2,3-c]pyridin-1-yl)-1,6-naphthyridine]: the inhibition constant Ki (commonly the equilibrium dissociation constant of an inhibitor or competing ligand from its target) stood at 52.7 nM.
`c1cc2ccn(-c3ccc(-c4nc[nH]n4)cn3)c2cn1` [Compound 41, 1-(5-(1H-1,2,4-triazol-3-yl)pyridin-2-yl)-1H-pyrrolo[2,3-c]pyridine] came in with a Ki of 8.8 nM.
In the case of `OC1CCN(c2ccc(-n3ccc4ccncc43)nc2)CC1` [Compound 42, 1-(6-(1H-pyrrolo[2,3-c]pyridin-1-yl)pyridin-3-yl)piperidin-4-ol], the Ki came to 71.1 nM. Against the preceding compound, the Ki is about 8.1-fold higher.
`FC1CCN(c2ccc(-n3ccc4ccncc43)nc2)CC1` [Compound 43, 1-(5-(4-fluoropiperidin-1-yl)pyridin-2-yl)-1H-pyrrolo[2,3-c]pyridine] came in with a Ki of 10 nM.
On the same count and under the same terms, for `Fc1cc(-c2ccc(-n3ccc4ccncc43)nc2)ccn1` [Compound 44, 1-(6′-fluoro-3,4′-bipyridin-6-yl)-1H-pyrrolo[2,3-c]pyridine] the value was 1.13 nM; for `c1cc(-c2ccc(-n3ccc4ccncc43)nc2)ncn1` [Compound 46, 1-(5-(pyrimidin-4-yl)pyridin-2-yl)-1H-pyrrolo[2,3-c]pyridine], 2.19 nM.
As for `Oc1cccc2cnc(-n3ccc4ccncc43)cc12` [Compound 49], the Ki came to 0.67 nM. Against the preceding compound, the Ki is about 3.3-fold lower.
On the same count and under the same terms, for `C#Cc1cnc(-n2ccc3ccncc32)cc1C` [Compound 50] the value was 0.75 nM; for `Cc1cc(-n2ccc3ccncc32)ncc1C#CCF` [Compound 51], 0.87 nM; for `CC#Cc1ccc(-n2ccc3ccncc32)nc1` [Compound 52], 0.98 nM.
For `c1cc2ccn(-c3ccc(-c4cncs4)cn3)c2cn1` [Compound 53], the Ki amounted to 1.02 nM. This Ki and that of the compound before are within 1.5-fold of each other.
In turn, `Fc1cccc2cnc(-n3ccc4ccncc43)cc12` [Compound 54] registered a Ki of 1.05 nM.
`FCOc1cccc2cc(-n3ccc4ccncc43)ncc12` [Compound 55] came in with a Ki of 1.14 nM.
`Oc1cccc2cc(-n3ccc4ccncc43)ncc12` [Compound 56] had a Ki of 1.16 nM.
For the compound `FCOc1ccc2cnc(-n3ccc4ccncc43)cc2c1` [Compound 57], affinity was put at a Ki of 1.23 nM.
`Cn1cc(-c2ccc(-n3ccc4ccncc43)nc2)cn1` [Compound 58] displayed a Ki of 1.32 nM.
With `Nc1cccc2cc(-n3ccc4ccncc43)ncc12` [Compound 59], the inhibitory constant (Ki) was found to be 0.33 nM.
Consider `Fc1ccc(-c2ccc(-n3ccc4ccncc43)nc2)cn1` [Compound 60], for which affinity was put at a Ki of 2.04 nM.
`CN(C)c1ccc2cnc(-n3ccc4ccncc43)cc2c1` [Compound 61] displayed a Ki of 2.23 nM. The Ki values of the last two compounds are within 1.5-fold of each other.
With `Fc1ccc2nc(-n3ccc4ccncc43)ncc2c1` [Compound 62], the Ki is 2.55 nM.
As to `Cn1ccc(-c2ccc(-n3ccc4ccncc43)nc2)n1` [Compound 63], the Ki was 2.84 nM.
In turn, `c1cnc(-c2ccc(-n3ccc4ccncc43)nc2)cn1` [Compound 64] showed a Ki of 3.17 nM.
The same measure, in the same setting: for `Cn1cnc(-c2ccc(-n3ccc4ccncc43)nc2)c1` [Compound 65] the value was 3.42 nM.
As to `CN(CCO)c1ccc2cnc(-n3ccc4ccncc43)cc2c1` [Compound 66], the Ki came to 4.07 nM.
`FCCOc1cccc2cc(-n3ccc4ccncc43)ncc12` [Compound 67] came in with a Ki of 6.75 nM.
In turn, `Fc1ccc2cnc(-n3ccc4ccncc43)nc2c1` [Compound 68] had a Ki of 8.45 nM.
Compound `FCCOc1ccc2nc(-n3ccc4ccncc43)ncc2c1` [Compound 69] gave an inhibitory constant (Ki) of 9.33 nM. This Ki and that of the compound before are within 1.5-fold of each other.
`COc1cccc2cnc(-n3ccc4ccncc43)cc12` [Compound 70] gave a Ki of 44.4 nM.
Compound `FCCOc1cccc2cnc(-n3ccc4ccncc43)cc12` [Compound 71] gave a Ki of 172 nM.
For `CNc1cccc(-c2ccc(-n3ccc4ccncc43)nc2)c1` [Compound 72], the affinity corresponds to a Ki of 0.76 nM.
Still for that read-out and setting: for `Oc1ccc2cnc(-n3ccc4ccncc43)cc2c1` [Compound 75] the value was 0.48 nM; for `CNc1ccc(-c2ccc(-n3ccc4ccncc43)nc2)cn1` [Compound 88], 0.69 nM.
Consider `Fc1cccc(-c2ccc(-n3ccc4ccncc43)nc2)n1` [Compound 91], for which the Ki amounted to 1.41 nM.
In turn, `CNc1cc(-c2ccc(-n3ccc4ccncc43)nc2)ccn1` [Compound 93] displayed a Ki of 0.53 nM.
Compound `CCNc1cc(-c2ccc(-n3ccc4ccncc43)nc2)ccn1` [Compound 94] showed an inhibition constant (Ki) of 1.4 nM.
The compound `CN(C)c1ccc(-c2ccc(-n3ccc4ccncc43)nc2)cn1` [Compound 95] yielded a Ki of 0.96 nM.
On the same count and under the same terms, for `Nc1cc(-c2ccc(-n3ccc4ccncc43)nc2)ccn1` [Compound 99] the value was 0.55 nM; for `Nc1ccc(-c2ccc(-n3ccc4ccncc43)nc2)cn1` [Compound 100], 1.06 nM.
Still for that read-out and setting: for `c1ccc(-c2ccc(-n3ccc4ccncc43)nc2)nc1` [Compound 101] the value was 1.14 nM.
In turn, `COc1cccc2cc(-n3ccc4ccncc43)ncc12` [Compound 103] gave a Ki of 0.32 nM.
In the case of `FCCn1ccc(-c2ccc(-n3ccc4ccncc43)nc2)n1` [Compound 104, 1-(5-(1-(2-fluoroethyl)-1H-pyrazol-3-yl)pyridin-2-yl)-1H-pyrrolo[2,3-c]pyridine], affinity was put at a Ki of 1.71 nM.

Staying with this experiment, now noted: Table 2, displacement of [^3H]-6 (0.25 nM).
The compound `Nc1cc2cnc(-n3ccc4ccncc43)cc2cc1F` [Compound 105, 6-fluoro-3-(1H-pyrrolo[2,3-c]pyridin-1-yl)isoquinolin-7-amine] displayed an inhibitory constant (Ki) of 0.383 nM. In other words, the sub-nanomolar range.
In turn, `Nc1cccc2cnc(-n3ccc4cc(F)ncc43)cc12` [Compound 106] returned a Ki of 10000 nM. Against the preceding compound, the Ki is about 26000-fold higher.
The compound `Nc1cccc2cnc(-n3ccc4ccnc(F)c43)cc12` [Compound 107] had an inhibition constant (Ki) of 10000 nM.
In turn, `Nc1ccc2cc(-n3ccc4ccncc43)ncc2c1F` [Compound 108] gave a Ki of 0.677 nM.
The same measure, in the same setting: for `Nc1cc2cc(-n3ccc4ccncc43)ncc2cc1F` [Compound 109] the value was 0.423 nM; for `Nc1c(F)ccc2cc(-n3ccc4ccncc43)ncc12` [Compound 110], 2.15 nM; for `Nc1ccc2cnc(-n3ccc4ccncc43)cc2c1F` [Compound 111], 1.09 nM.
Still for that read-out and setting: for `Nc1cc(F)cc2cc(-n3ccc4ccncc43)ncc12` [Compound 112] the value was 0.672 nM.
The same measure, in the same setting: for `Nc1cc(F)c2cnc(-n3ccc4ccncc43)cc2c1` [Compound 113] the value was 0.784 nM.
Compound `Nc1cc(F)c2cc(-n3ccc4ccncc43)ncc2c1` [Compound 114] returned a Ki of 0.494 nM.
The same measure, in the same setting: for `Nc1cc(F)cc2cnc(-n3ccc4ccncc43)cc12` [Compound 115] the value was 0.224 nM.
Same read-out and setting: for `Nc1ccc(F)c2cnc(-n3ccc4ccncc43)cc12` [Compound 116] the value was 1.28 nM; for `Nc1ccc(F)c2cc(-n3ccc4ccncc43)ncc12` [Compound 117], 2 nM; for `Nc1ccc2cnc(-n3ccc4ccncc43)cc2c1I` [Compound 118], 24.5 nM.
The same measure, in the same setting: for `Nc1c(I)ccc2cnc(-n3ccc4ccncc43)cc12` [Compound 119] the value was 0.438 nM; for `Nc1ccc(I)c2cc(-n3ccc4ccncc43)ncc12` [Compound 120], 93.8 nM; for `Nc1c(I)ccc2cc(-n3ccc4ccncc43)ncc12` [Compound 121], 0.512 nM.
In turn, `Nc1ccc2cc(-n3ccc4ccncc43)ncc2c1I` [Compound 122] showed a Ki of 1.77 nM.
On the same count and under the same terms, for `Nc1ccc(I)c2cnc(-n3ccc4ccncc43)cc12` [Compound 123] the value was 208 nM; for `Nc1cc(I)cc2cc(-n3ccc4ccncc43)ncc12` [Compound 124], 1.07 nM.
`Nc1cc(I)c2cnc(-n3ccc4ccncc43)cc2c1` [Compound 125] showed a Ki of 18.6 nM.
Take `Nc1cc2cc(-n3ccc4ccncc43)ncc2cc1I` [Compound 126]: affinity was put at a Ki of 0.18 nM.
As to `Nc1cc(I)cc2cnc(-n3ccc4ccncc43)cc12` [Compound 127], the Ki came out at 1.17 nM. This Ki lies about 6.5-fold higher than the previous one.
On the same count and under the same terms, for `Nc1cc(I)c2cc(-n3ccc4ccncc43)ncc2c1` [Compound 128] the value was 6.21 nM.
Take `COc1cc2ccn(-c3cc4cc(F)ccc4cn3)c2cn1` [Compound 130]: the affinity corresponds to a Ki of 4.03 nM.
